Measurements published in article PMC6009984, “Synthesis and biological evaluation of benzenesulphonamide-bearing 1,4,5-trisubstituted-1,2,3-triazoles possessing human carbonic anhydrase I, II, IV, and IX inhibitory activity” (Journal of Enzyme Inhibition and Medicinal Chemistry, 2017).

Assays:
[1] = target: hCA IX (Homo sapiens, UniProt Q16790); experiment: stopped-flow CO2 hydrase assay, hCA IX
[2] = target: hCA IV (Homo sapiens, UniProt P22748); experiment: stopped-flow CO2 hydrase assay, hCA IV
[3] = target: hCA I (Homo sapiens, UniProt P00915); experiment: stopped-flow CO2 hydrase assay, hCA I
[4] = target: hCA II (Homo sapiens, UniProt P00918); experiment: stopped-flow CO2 hydrase assay, hCA II; conditions: Ki (nM) hCA II, cytosolic isoform; mean from three different assays, stopped flow technique, errors ±5–10%

Sequence of hCA IV (P22748 19-312): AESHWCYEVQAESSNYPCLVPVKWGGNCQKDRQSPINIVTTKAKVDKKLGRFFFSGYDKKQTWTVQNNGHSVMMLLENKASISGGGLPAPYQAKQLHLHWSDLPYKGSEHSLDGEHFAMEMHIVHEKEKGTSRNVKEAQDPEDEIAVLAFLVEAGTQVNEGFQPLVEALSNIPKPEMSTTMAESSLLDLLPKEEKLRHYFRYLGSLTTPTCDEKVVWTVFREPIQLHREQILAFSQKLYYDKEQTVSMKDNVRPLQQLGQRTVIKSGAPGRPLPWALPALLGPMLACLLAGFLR
Sequence of hCA I (P00915 whole entry, canonical isoform): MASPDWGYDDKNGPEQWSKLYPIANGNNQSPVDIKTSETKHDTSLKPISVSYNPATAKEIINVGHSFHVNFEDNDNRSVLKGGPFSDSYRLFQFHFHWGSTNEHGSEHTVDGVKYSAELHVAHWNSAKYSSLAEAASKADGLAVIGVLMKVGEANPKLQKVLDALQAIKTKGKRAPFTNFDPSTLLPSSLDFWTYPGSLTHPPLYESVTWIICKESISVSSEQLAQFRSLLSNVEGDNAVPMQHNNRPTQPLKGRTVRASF

melting point [°C] | Ki [1] [nM] | Ki [2] [nM] | Ki [3] [nM] | Ki [4] [nM] | Compound
180 to 182 | 5.8 | 1.9 | 812 | 4 | COc1ccc(-c2c(CO)nnn2-c2ccc(S(N)(=O)=O)cc2)cc1 [Compound 8c, 4-(4-(Hydroxymethyl)-5-(4-methoxyphenyl)-1H-1,2,3-triazol-1-yl)benzenesulphonamide]
206 | 26.1 | 22.7 | 73.7 | 38 | NNC(=O)c1nnn(-c2ccc(S(N)(=O)=O)cc2)c1-c1ccccc1 [Compound 7b, 4-[4-(Hydrazinocarbonyl)-5-phenyl-1H-1,2,3-triazol-1-yl]benzenesulphonamide]
170 to 172 | 8.1 | 4 | 91.2 | 5.6 | COc1ccc(-c2c(C(=O)NN)nnn2-c2ccc(S(N)(=O)=O)cc2)cc1 [Compound 7c, 4-[4-(Hydrazinocarbonyl)-5-(4-methoxyphenyl)-1H-1,2,3-triazol-1-yl]benzenesulphonamide]
212 to 214 | 7.8 | 1.9 | 214 | 8.1 | NS(=O)(=O)c1ccc(-n2nnc(CO)c2-c2ccc3ccccc3c2)cc1 [Compound 8d, 4-(4-(Hydroxymethyl)-5-(2-naphthyl)-1H-1,2,3-triazol-1-yl)benzenesulphonamide]
174 to 176 | 58.7 | 8.4 | 78.9 | 9.4 | NS(=O)(=O)c1ccc(-n2nnc(CO)c2-c2ccccc2)cc1 [Compound 8b, 4-(4-(Hydroxymethyl)-5-phenyl-1H-1,2,3-triazol-1-yl)benzenesulphonamide]
184 | 30.6 | 360 | 354 | 58.9 | Cc1c(CO)nnn1-c1ccc(S(N)(=O)=O)cc1 [Compound 8a, 4-(4-(Hydroxymethyl)-5-methyl-1H-1,2,3-triazol-1-yl)benzenesulphonamide]
156 | 7.2 | 2 | 82.5 | 1.6 | NNC(=O)c1nnn(-c2ccc(S(N)(=O)=O)cc2)c1-c1ccc2ccccc2c1 [Compound 7d, 4-[4-(Hydrazinocarbonyl)-5-(2-naphthyl)-1H-1,2,3-triazol-1-yl]benzenesulphonamide]

The remaining lines, values behind:

Compound | melting point [°C] | Ki [1] [nM] | Ki [2] [nM] | Ki [3] [nM] | Ki [4] [nM]
Cc1c(C(=O)O)nnn1-c1ccc(S(N)(=O)=O)cc1 [Compound 5a, 1-[4-(Aminosulfonyl)phenyl]-5-methyl-1H-1,2,3-triazole-4-carboxylic acid] | 198 | 8.5 | 269 | 9.6 | 1.6
CCOC(=O)c1nnn(-c2ccc(S(N)(=O)=O)cc2)c1-c1ccc(OC)cc1 [Compound 4c, Ethyl 1-[4-(aminosulfonyl)phenyl]-5-(4-methoxyphenyl)-1H-1,2,3-triazole-4-carboxylate] | 176 | 40 | 4.5 | 63 | 6.1
NC(=O)c1nnn(-c2ccc(S(N)(=O)=O)cc2)c1-c1ccc2ccccc2c1 [Compound 6d, 1-[4-(Aminosulfonyl)phenyl]-5-(2-naphthyl)-1H-1,2,3-triazole-4-carboxamide] | 278 to 280 | 6.7 | 4 | 772 | 6
CCOC(=O)c1nnn(-c2ccc(S(N)(=O)=O)cc2)c1-c1ccc2ccccc2c1 [Compound 4d, Ethyl 1-[4-(aminosulfonyl)phenyl]-5-(2-naphthyl)-1H-1,2,3-triazole-4-carboxylate] | 180 | 7.1 | 5 | 68.2 | 5.8
NS(=O)(=O)c1ccc(-n2nnc(C(=O)O)c2-c2ccccc2)cc1 [Compound 5b, 1-[4-(Aminosulfonyl)phenyl]-5-phenyl-1H-1,2,3-triazole-4-carboxylic acid] | – | 45.9 | 55.3 | 646 | 97.9
Cc1c(C(=O)NN)nnn1-c1ccc(S(N)(=O)=O)cc1 [Compound 7a, 4-[4-(Hydrazinocarbonyl)-5-methyl-1H-1,2,3-triazol-1-yl]benzenesulphonamide] | – | 9.3 | 228 | 15.1 | 7.6
NS(=O)(=O)c1ccc(-n2nnc(C(=O)O)c2-c2ccc3ccccc3c2)cc1 [Compound 5d, 1-[4-(Aminosulfonyl)phenyl]-5-(2-naphthyl)-1H-1,2,3-triazole-4-carboxylic acid] | 198 to 200 | 4.2 | 4.1 | 56.2 | 8.9
CCOC(=O)c1nnn(-c2ccc(S(N)(=O)=O)cc2)c1-c1ccccc1 [Compound 4b, Ethyl 1-[4-(aminosulfonyl)phenyl]-5-phenyl-1H-1,2,3-triazole-4-carboxylate] | 184 | 9.5 | 5.1 | 246 | 6
COc1ccc(-c2c(C(=O)O)nnn2-c2ccc(S(N)(=O)=O)cc2)cc1 [Compound 5c, 1-[4-(Aminosulfonyl)phenyl]-5-(4-methoxyphenyl)-1H-1,2,3-triazole-4-carboxylic acid] | 148 to 150 | 42.3 | 2.4 | 489 | 9
COc1ccc(-c2c(C(N)=O)nnn2-c2ccc(S(N)(=O)=O)cc2)cc1 [Compound 6c, 1-[4-(Aminosulfonyl)phenyl]-5-(4-methoxyphenyl)-1H-1,2,3-triazole-4-carboxamide] | 280 to 282 | 6.8 | 1.7 | 874 | 6.2
CCOC(=O)c1nnn(-c2ccc(S(N)(=O)=O)cc2)c1C [Compound 4a, Ethyl 1-[4-(aminosulfonyl)phenyl]-5-methyl-1H-1,2,3-triazole-4-carboxylate] | – | 6.6 | 3.5 | 9.1 | 3.2
NC(=O)c1nnn(-c2ccc(S(N)(=O)=O)cc2)c1-c1ccccc1 [Compound 6b, 1-[4-(Aminosulfonyl)phenyl]-5-phenyl-1H-1,2,3-triazole-4-carboxamide] | 210 | 28.3 | 1.4 | 69.1 | 9.1
Cc1c(C(N)=O)nnn1-c1ccc(S(N)(=O)=O)cc1 [Compound 6a, 1-[4-(Aminosulfonyl)phenyl]-5-methyl-1H-1,2,3-triazole-4-carboxamide] | 314 to 316 | 9.5 | 212 | 8.3 | 1.9
